Data: patent US8476265B2, “Compounds-801” (AstraZeneca AB, priority 2010, dated 2013)

Experiments:
Adrenergic β2 [1] = target: T1, Adrenergic β2 (Homo sapiens, UniProt P07550); test: Adrenergic β2 mediated cAMP production in H292 cells, single concentration 1 μM; type: cell-based; settings: cAMP as percentage of the maximum response generated by 1E-07M formoterol; for percent of formoterol maximum response at 1 µM: NCI-H292, 1 μM compound, read-out: β2 % effect @1 uM
T1 construct: Adherent H292 cells are removed from tissue culture flasks by treatment with Accutase™ cell detachment solution; endogenous in cells; host or cells: H292 cells
In short: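 H292 cells pretreated with rolipram (300 μM final) 10 min, then compound at 1 μM final, 1% DMSO, 60 min at room temperature in HBSS/10 mM HEPES pH 7.4/5 mM glucose. Lysate cAMP quantified by AlphaScreen against a standard curve, as % of maximal response to 1E-07M formoterol.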

[2] = target: T2, human muscarinic acetylcholine M3 receptor (Homo sapiens, UniProt P20309); test: Muscarinic 3 receptor binding assay ([3H]NMS competition, SPA), pIC50; settings: [3H]NMS 0.1 nM, CHO-K1 cell membranes expressing human M3 receptor
T2 construct: expressed in transfected cells; host or cells: CHO-K1 (Chinese Hamster Ovary) cell membranes
In short: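 Competition of [3H]NMS (0.1 nM, quarter Kd) binding to CHO-K1 membranes expressing human M3, SPA format, in 20 mM HEPES pH 7.4, 5 mM MgCl2, 0.1% BSA, 1% DMSO. Incubated 16 h at room temperature; non-specific binding with 1 μM atropine; pIC50 from specific binding.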

[3] = target: T2, human muscarinic acetylcholine M3 receptor; test: Muscarinic 3 receptor binding assay ([3H]NMS competition, SPA), single concentration 1 μM; settings: 1 μM compound; % inhibition specific [3H]-NMS binding
In short: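 CHO-K1 membranes expressing human M3 on SPA beads, competition with 0.1 nM [3H]NMS (quarter Kd) in 20 mM HEPES pH 7.4, 5 mM MgCl2, 0.1% BSA, 1% DMSO; compound at 1 μM. 16 h at room temperature. Value is % inhibition of specific binding, non-specific defined with 1 μM atropine.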

Adrenergic β2 [4] = target: T1, Adrenergic β2; test: Adrenergic β2 mediated cAMP production in H292 cells (AlphaScreen), concentration response; type: cell-based
In short: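 H292 cells seeded overnight, pretreated 10 min with rolipram (300 μM final), then exposed to compounds 60 min at room temperature in HBSS/10 mM HEPES pH 7.4/5 mM glucose, 1% DMSO. Lysate cAMP quantified by AlphaScreen against a standard curve; four-parameter fit gives pEC50 and intrinsic activity relative to formoterol maximum.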

T1 sequence (P07550 whole entry): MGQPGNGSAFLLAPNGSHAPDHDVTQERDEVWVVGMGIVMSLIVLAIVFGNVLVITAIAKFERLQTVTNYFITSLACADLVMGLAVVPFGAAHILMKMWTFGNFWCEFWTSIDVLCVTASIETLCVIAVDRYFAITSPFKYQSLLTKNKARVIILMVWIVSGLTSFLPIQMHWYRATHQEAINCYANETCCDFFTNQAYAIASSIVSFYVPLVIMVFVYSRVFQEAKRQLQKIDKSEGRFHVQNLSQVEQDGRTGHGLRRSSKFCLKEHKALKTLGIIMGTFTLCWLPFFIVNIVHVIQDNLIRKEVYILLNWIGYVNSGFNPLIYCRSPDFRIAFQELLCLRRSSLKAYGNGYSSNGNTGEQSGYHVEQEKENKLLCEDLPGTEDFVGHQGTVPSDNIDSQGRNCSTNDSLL
T2 sequence (P20309 whole entry): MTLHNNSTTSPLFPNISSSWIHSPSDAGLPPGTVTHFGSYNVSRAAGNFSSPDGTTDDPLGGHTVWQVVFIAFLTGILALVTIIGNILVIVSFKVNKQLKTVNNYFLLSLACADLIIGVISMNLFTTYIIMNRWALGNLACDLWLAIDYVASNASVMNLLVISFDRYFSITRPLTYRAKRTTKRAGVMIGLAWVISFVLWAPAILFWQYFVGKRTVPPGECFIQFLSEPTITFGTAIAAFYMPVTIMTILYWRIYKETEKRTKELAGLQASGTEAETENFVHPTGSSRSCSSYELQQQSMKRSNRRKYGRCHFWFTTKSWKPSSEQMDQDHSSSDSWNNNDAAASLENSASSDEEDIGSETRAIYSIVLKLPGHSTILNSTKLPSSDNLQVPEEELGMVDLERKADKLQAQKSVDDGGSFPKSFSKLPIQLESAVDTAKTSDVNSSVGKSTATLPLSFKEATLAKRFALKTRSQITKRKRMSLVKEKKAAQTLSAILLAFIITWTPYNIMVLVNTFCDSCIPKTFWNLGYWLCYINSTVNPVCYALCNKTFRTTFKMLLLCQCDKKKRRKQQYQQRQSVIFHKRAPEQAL

Structure (SMILES)	percent of formoterol maximum response at 1 µM (Adrenergic β2 [1])	inhibition at 1 µM [3]	further results
O=C1COc2c(CCNCCN(C(=O)CCOCCc3cccc(CN4CCC5(CC4)CN(C(=O)C(O)c4ccccc4Cl)CCO5)c3)C3CCCCC3)ccc(O)c2N1 (stereo not drawn) [Example 128, 3-(3-((4-(2-(2-Chlorophenyl)-2-hydroxyacetyl)-1-oxa-4,9-diazaspiro[5.5]undecan-9-yl)methyl)phenethoxy)-N-cyclohexyl-N-(2-(2-(5-hydroxy-3-oxo-3,4-dihydro-2H-benzo[b][1,4]oxazin-8-yl)ethylamino)ethyl)propanamide]	125%	99%	IC50 [2]: 1 nM
O=C1COc2c(CCNCCN(C(=O)CCOCCc3cccc(CN4CCC5(CC4)CN(C(=O)c4cnc6ccccc6n4)CCO5)c3)C3CCCCC3)ccc(O)c2N1 [Example 119, N-Cyclohexyl-N-(2-(2-(5-hydroxy-3-oxo-3,4-dihydro-2H-benzo[b][1,4]oxazin-8-yl)ethylamino)ethyl)-3-(3-((4-(quinoxaline-2-carbonyl)-1-oxa-4,9-diazaspiro[5.5]undecan-9-yl)methyl)phenethoxy)propanamide]	84%	100%	EC50 (Adrenergic β2 [4]; 60 min, 300 μM rolipram, read-out: β2 pEC50 (converted)): 158 nM; β2 Intrinsic Activity (Adrenergic β2 [4]; fraction relative to the maximum activity determined for formoterol): >0.9; IC50 [2]: 2 nM
O=C1COc2c(CCNCCN(C(=O)CCOCCc3cccc(CN4CCC5(CC4)CN(C(=O)c4cccc(F)c4F)CCO5)c3)C3CCCCC3)ccc(O)c2N1 [Example 110, N-Cyclohexyl-3-(3-((4-(2,3-difluorobenzoyl)-1-oxa-4,9-diazaspiro[5.5]undecan-9-yl)methyl)phenethoxy)-N-(2-(2-(5-hydroxy-3-oxo-3,4-dihydro-2H-benzo[b][1,4]oxazin-8-yl)ethylamino)ethyl)propanamide]	99%	100%	
O=C1COc2c(CCNCCN(C(=O)CCOCCc3cccc(CN4CCC5(CC4)CN(C(=O)[C@@H](O)Cc4ccccc4)CCO5)c3)C3CCCCC3)ccc(O)c2N1 [Example 134, (S)-N-Cyclohexyl-N-(2-(2-(5-hydroxy-3-oxo-3,4-dihydro-2H-benzo[b][1,4]oxazin-8-yl)ethylamino)ethyl)-3-(3-((4-(2-hydroxy-3-phenylpropanoyl)-1-oxa-4,9-diazaspiro[5.5]undecan-9-yl)methyl)phenethoxy)propanamide]	89%	97%	
N#Cc1ccc(C(=O)N2CCOC3(CCN(Cc4cccc(CCOCCC(=O)N(CCNCCc5ccc(O)c6c5OCC(=O)N6)C5CCCCC5)c4)CC3)C2)cc1 [Example 156, 3-(3-((4-(4-Cyanobenzoyl)-1-oxa-4,9-diazaspiro[5.5]undecan-9-yl)methyl)phenethoxy)-N-cyclohexyl-N-(2-(2-(5-hydroxy-3-oxo-3,4-dihydro-2H-benzo[b][1,4]oxazin-8-yl)ethylamino)ethyl)propanamide]	86%	93%	
O=C1COc2c(CCNCCN(C(=O)CCOCCc3cccc(CN4CCC5(CC4)CN(C(=O)c4ccc(-n6cccn6)nc4)CCO5)c3)C3CCCCC3)ccc(O)c2N1 [Example 112, 3-(3-((4-(6-(1H-Pyrazol-1-yl)nicotinoyl)-1-oxa-4,9-diazaspiro[5.5]undecan-9-yl)methyl)phenethoxy)-N-cyclohexyl-N-(2-(2-(5-hydroxy-3-oxo-3,4-dihydro-2H-benzo[b][1,4]oxazin-8-yl)ethylamino)ethyl)propanamide]	105%	98%	
O=C1COc2c(CCNCCN(C(=O)CCOCCc3cccc(CN4CCC5(CC4)CN(C(=O)c4cccc6cccnc46)CCO5)c3)C3CCCCC3)ccc(O)c2N1 [Example 100, N-Cyclohexyl-N-(2-(2-(5-hydroxy-3-oxo-3,4-dihydro-2H-benzo[b][1,4]oxazin-8-yl)ethylamino)ethyl)-3-(3-((4-(quinoline-8-carbonyl)-1-oxa-4,9-diazaspiro[5.5]undecan-9-yl)methyl)phenethoxy)propanamide]	95%	96%	
O=C1COc2c(CCNCCN(C(=O)CCOCCc3cccc(CN4CCC5(CC4)CN(C(=O)C(CO)c4ccccc4)CCO5)c3)C3CCCCC3)ccc(O)c2N1 (stereo not drawn) [Example 104, N-Cyclohexyl-3-(3-((4-(3-hydroxy-2-phenylpropanoyl)-1-oxa-4,9-diazaspiro[5.5]undecan-9-yl)methyl)phenethoxy)-N-(2-(2-(5-hydroxy-3-oxo-3,4-dihydro-2H-benzo[b][1,4]oxazin-8-yl)ethylamino)ethyl)propanamide]	100%	101%	
O=C1COc2c(CCNCCN(C(=O)CCOCCc3cccc(CN4CCC5(CC4)CN(C(=O)Cc4ccsc4)CCO5)c3)C3CCCCC3)ccc(O)c2N1 [Example 109, N-Cyclohexyl-N-(2-(2-(5-hydroxy-3-oxo-3,4-dihydro-2H-benzo[b][1,4]oxazin-8-yl)ethylamino)ethyl)-3-(3-((4-(2-(thiophen-3-yl)acetyl)-1-oxa-4,9-diazaspiro[5.5]undecan-9-yl)methyl)phenethoxy)propanamide]	98%	99%	
O=C1COc2c(CCNCCN(C(=O)CCOCCc3cccc(CN4CCC5(CC4)CN(C(=O)c4n[nH]cc4Cl)CCO5)c3)C3CCCCC3)ccc(O)c2N1 [Example 133, 3-(3-((4-(4-Chloro-1H-pyrazole-3-carbonyl)-1-oxa-4,9-diazaspiro[5.5]undecan-9-yl)methyl)phenethoxy)-N-cyclohexyl-N-(2-(2-(5-hydroxy-3-oxo-3,4-dihydro-2H-benzo[b][1,4]oxazin-8-yl)ethylamino)ethyl)propanamide]	83%	101%	
O=C1COc2c(CCNCCN(C(=O)CCOCCc3cccc(CN4CCC5(CC4)CN(C(=O)C46CC7CC(F)(CC(F)(C7)C4)C6)CCO5)c3)C3CCCCC3)ccc(O)c2N1 [Example 143]			β2 % effect @1 uM (Adrenergic β2 [1]; 1 μM compound): 105%; M3 % inhibition @1 uM [3]: 101%
O=C1COc2c(CCNCCN(C(=O)CCOCCc3cccc(CN4CCC5(CC4)CN(C(=O)c4n[nH]c6ccccc46)CCO5)c3)C3CCCCC3)ccc(O)c2N1 [Example 120, 3-(3-((4-(1H-Indazole-3-carbonyl)-1-oxa-4,9-diazaspiro[5.5]undecan-9-yl)methyl)phenethoxy)-N-cyclohexyl-N-(2-(2-(5-hydroxy-3-oxo-3,4-dihydro-2H-benzo[b][1,4]oxazin-8-yl)ethylamino)ethyl)propanamide]	97%	101%	
O=C1COc2c(CCNCCN(C(=O)CCOCCc3cccc(CN4CCC5(CC4)CN(C(=O)c4cnc6ccccc6c4)CCO5)c3)C3CCCCC3)ccc(O)c2N1 [Example 99, N-Cyclohexyl-N-(2-(2-(5-hydroxy-3-oxo-3,4-dihydro-2H-benzo[b][1,4]oxazin-8-yl)ethylamino)ethyl)-3-(3-((4-(quinoline-3-carbonyl)-1-oxa-4,9-diazaspiro[5.5]undecan-9-yl)methyl)phenethoxy)propanamide]	112%	99%	
